Results published in ChEMBL document CHEMBL1201862, “PubChem BioAssay data set” (2004).
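Briefly, cells in 96-well plates were exposed to five compound concentrations for 48 h, and endpoints were estimated by linear interpolation. GI50 marks 50% less growth.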 Active and inactive are the calls of the source. Cut-off read from the data, not from the text of the source: active = GI50 up to about 1.1 µM and inactive = higher.

Experiments:
Assay in all cases: inhibition of tumour cell growth, NCI panel, 48 h
A498 = system: A498
MDA-N = system: MDA-N
SF-295 = system: SF-295
786-0 = system: 786-0
HCC 2998 = system: HCC 2998
SK-MEL-5 = system: SK-MEL-5
SK-MEL-28 = system: SK-MEL-28
CCRF-CEM = system: CCRF-CEM
IGROV-1 = system: IGROV-1
SNB-19 = system: SNB-19
M14 = system: M14
PC-3 = system: PC-3
OVCAR-4 = system: OVCAR-4
TK-10 = system: TK-10
MOLT-4 = system: MOLT-4
SR = system: SR
NCI/ADR-RES = system: NCI/ADR-RES
HL-60 = system: HL-60
A549 = system: A549
UACC-257 = system: UACC-257

COC(=O)c1ccccc1OCc1cc(=O)oc2ccc(C)cc12
GI50 (A498): > 100 µM (inactive)
GI50 (MDA-N): > 100 µM (inactive)
GI50 (SF-295): 28.2 µM (inactive)
GI50 (786-0): 39.1 µM (inactive)
GI50 (HCC 2998): > 100 µM (inactive)
GI50 (SK-MEL-5): > 100 µM (inactive)
GI50 (SK-MEL-28): > 100 µM (inactive)
GI50 (CCRF-CEM): > 100 µM (inactive)
GI50 (IGROV-1): 64.7 µM (inactive)
GI50 (SNB-19): 14.7 µM (inactive)
GI50 (M14): > 87.7 µM (inactive)
GI50 (PC-3): > 100 µM (inactive)
GI50 (OVCAR-4): 20 µM (inactive)
GI50 (TK-10): 58.7 µM (inactive)
GI50 (MOLT-4): > 100 µM (inactive)
GI50 (SR): > 100 µM (inactive)
GI50 (NCI/ADR-RES): 64.7 µM (inactive)
GI50 (HL-60): > 100 µM (inactive)
GI50 (A549): 82.2 µM (inactive)
GI50 (UACC-257): > 87.3 µM (inactive)

O=C1c2ccccc2C(=O)c2sc(Nc3cc(Cl)ccc3Cl)nc21
GI50 (A498): 21 µM (inactive)
GI50 (MDA-N): 1.82 µM (inactive)
GI50 (SF-295): 4.03 µM (inactive)
GI50 (786-0): 3.61 µM (inactive)
GI50 (HCC 2998): 5.86 µM (inactive)
GI50 (SK-MEL-5): 1.53 µM (inactive)
GI50 (SK-MEL-28): 6.7 µM (inactive)
GI50 (CCRF-CEM): 4.29 µM (inactive)
GI50 (IGROV-1): 4.15 µM (inactive)
GI50 (SNB-19): 14.3 µM (inactive)
GI50 (M14): 4.69 µM (inactive)
GI50 (PC-3): 3.21 µM (inactive)
GI50 (OVCAR-4): 4.16 µM (inactive)
GI50 (TK-10): 15 µM (inactive)
GI50 (MOLT-4): 2.52 µM (inactive)
GI50 (SR): 2.52 µM (inactive)
GI50 (NCI/ADR-RES): 2.63 µM (inactive)
GI50 (HL-60): 0.736 µM (active)
GI50 (A549): 16.4 µM (inactive)
GI50 (UACC-257): 2.51 µM (inactive)

CC(C)c1ccc2c(c1)CCC1C(C)(CN)CCCC21C (stereo not given)
GI50 (A498): 1.61 µM (inactive)
GI50 (MDA-N): 1.51 µM (inactive)
GI50 (SF-295): 1.82 µM (inactive)
GI50 (786-0): 1.56 µM (inactive)
GI50 (HCC 2998): 0.0438 µM (active)
GI50 (SK-MEL-5): 1.8 µM (inactive)
GI50 (SK-MEL-28): 1.73 µM (inactive)
GI50 (CCRF-CEM): 1.55 µM (inactive)
GI50 (IGROV-1): 1.71 µM (inactive)
GI50 (SNB-19): 1.77 µM (inactive)
GI50 (M14): 1.67 µM (inactive)
GI50 (PC-3): 1.59 µM (inactive)
GI50 (OVCAR-4): 1.61 µM (inactive)
GI50 (TK-10): 1.7 µM (inactive)
GI50 (MOLT-4): 1.32 µM (inactive)
GI50 (SR): 1.1 µM (active)
GI50 (NCI/ADR-RES): 1.64 µM (inactive)
GI50 (HL-60): 1.31 µM (inactive)
GI50 (A549): 1.8 µM (inactive)
GI50 (UACC-257): 1.69 µM (inactive)

CC1CNC(c2ccc(-c3nc(-c4ccc(C5=NC(C)CN5)cc4)nc(N(C)C)n3)cc2)=N1 (stereo not given)
GI50 (A498): 2.05 µM (inactive)
GI50 (MDA-N): 1.85 µM (inactive)
GI50 (SF-295): 4.22 µM (inactive)
GI50 (786-0): 1.28 µM (inactive)
GI50 (HCC 2998): 1.83 µM (inactive)
GI50 (SK-MEL-5): 3.8 µM (inactive)
GI50 (SK-MEL-28): 2.69 µM (inactive)
GI50 (CCRF-CEM): 0.685 µM (active)
GI50 (IGROV-1): 4.06 µM (inactive)
GI50 (SNB-19): 1.75 µM (inactive)
GI50 (M14): 3.21 µM (inactive)
GI50 (PC-3): 1.57 µM (inactive)
GI50 (OVCAR-4): 1.55 µM (inactive)
GI50 (TK-10): 3.78 µM (inactive)
GI50 (MOLT-4): 0.681 µM (active)
GI50 (SR): 0.653 µM (active)
GI50 (NCI/ADR-RES): 22 µM (inactive)
GI50 (HL-60): 2.62 µM (inactive)
GI50 (A549): 3.02 µM (inactive)
GI50 (UACC-257): 3.08 µM (inactive)

c1ccc(N/N=C2\CC(c3ccccc3)Oc3ccccc32)cc1 (stereo not given)
GI50 (A498): 42.2 µM (inactive)
GI50 (MDA-N): 31.5 µM (inactive)
GI50 (SF-295): 42.7 µM (inactive)
GI50 (786-0): 24.3 µM (inactive)
GI50 (HCC 2998): 43.4 µM (inactive)
GI50 (SK-MEL-5): 40.8 µM (inactive)
GI50 (SK-MEL-28): > 100 µM (inactive)
GI50 (CCRF-CEM): 33 µM (inactive)
GI50 (IGROV-1): 22.6 µM (inactive)
GI50 (SNB-19): 35.9 µM (inactive)
GI50 (M14): 42.6 µM (inactive)
GI50 (PC-3): 47.1 µM (inactive)
GI50 (OVCAR-4): 46.2 µM (inactive)
GI50 (TK-10): 74.1 µM (inactive)
GI50 (MOLT-4): 28.4 µM (inactive)
GI50 (SR): 42.1 µM (inactive)
GI50 (NCI/ADR-RES): 43.1 µM (inactive)
GI50 (HL-60): 38.2 µM (inactive)
GI50 (A549): 53.7 µM (inactive)
GI50 (UACC-257): 69.3 µM (inactive)

COc1ccccc1/C=C1\CCC(CN(C)C)C1=O (stereo not given)
GI50 (A498): 19.3 µM (inactive)
GI50 (MDA-N): 4.09 µM (inactive)
GI50 (SF-295): 15.2 µM (inactive)
GI50 (786-0): 2.16 µM (inactive)
GI50 (HCC 2998): 5.21 µM (inactive)
GI50 (SK-MEL-5): 12.4 µM (inactive)
GI50 (SK-MEL-28): 4.36 µM (inactive)
GI50 (CCRF-CEM): 1.5 µM (inactive)
GI50 (IGROV-1): 13.3 µM (inactive)
GI50 (SNB-19): 17.1 µM (inactive)
GI50 (M14): 3.64 µM (inactive)
GI50 (PC-3): 8.05 µM (inactive)
GI50 (OVCAR-4): 6.92 µM (inactive)
GI50 (TK-10): 5.73 µM (inactive)
GI50 (MOLT-4): 4.61 µM (inactive)
GI50 (SR): 6.15 µM (inactive)
GI50 (NCI/ADR-RES): 7.24 µM (inactive)
GI50 (HL-60): 1.49 µM (inactive)
GI50 (A549): 20.1 µM (inactive)
GI50 (UACC-257): 10.8 µM (inactive)

COCCN(CCOC)C(=O)COc1c2cc(C(C)(C)C)cc1Cc1cc(C(C)(C)C)cc(c1OCC(=O)N(CCOC)CCOC)Cc1cc(C(C)(C)C)cc(c1OCC(=O)N(CCOC)CCOC)Cc1cc(C(C)(C)C)cc(c1OCC(=O)N(CCOC)CCOC)Cc1cc(C(C)(C)C)cc(c1OCC(=O)N(CCOC)CCOC)C2
GI50 (A498): 3.17 µM (inactive)
GI50 (MDA-N): 2.1 µM (inactive)
GI50 (SF-295): 1.54 µM (inactive)
GI50 (786-0): 2.15 µM (inactive)
GI50 (HCC 2998): 2.25 µM (inactive)
GI50 (SK-MEL-5): 1.32 µM (inactive)
GI50 (SK-MEL-28): 3.33 µM (inactive)
GI50 (CCRF-CEM): 0.705 µM (active)
GI50 (IGROV-1): 1.18 µM (inactive)
GI50 (SNB-19): 1.34 µM (inactive)
GI50 (M14): 1.89 µM (inactive)
GI50 (PC-3): 0.659 µM (active)
GI50 (OVCAR-4): 0.467 µM (active)
GI50 (TK-10): 2.76 µM (inactive)
GI50 (MOLT-4): 1.74 µM (inactive)
GI50 (SR): 0.352 µM (active)
GI50 (NCI/ADR-RES): 10.7 µM (inactive)
GI50 (HL-60): 1.25 µM (inactive)
GI50 (A549): 0.802 µM (active)
GI50 (UACC-257): 1.01 µM (active)
